In ChEMBL document CHEMBL1201862, “PubChem BioAssay data set” (2004):
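96-well plates; 48 h exposure; 5 concentrations. Endpoints by linear interpolation between flanking doses. Not reached: highest tested concentration assigned. Abbreviation: GI50, concentration required for 50% inhibition of growth.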 Calls of active or inactive are those of the source. No stated cut-off is given here; in the data, active = GI50 up to about 1.1 µM and inactive = higher.

Key:
Assay in all cases: NCI tumour cell line growth inhibition, 48 h
[1] = system: HCT-116
[2] = system: HCC 2998
[3] = system: NCI/ADR-RES
[4] = system: MOLT-4
[5] = system: Malme-3M
[6] = system: SW-620
[7] = system: OVCAR-8
[8] = system: MDA-N
[9] = system: SF-295
[10] = system: OVCAR-5
[11] = system: SF-539
[12] = system: CAKI-1
[13] = system: HCT-15
[14] = system: SNB-75
[15] = system: SK-MEL-5
[16] = system: COLO 205
[17] = system: SN12C
[18] = system: HOP-92
[19] = system: ACHN
[20] = system: DU-145
[21] = system: MDA-MB-435
[22] = system: UO-31
[23] = system: OVCAR-3
[24] = system: SF-268
[25] = system: MDA-MB-231
[26] = system: A498
[27] = system: UACC-62
[28] = system: NCI-H522
[29] = system: PC-3
[30] = system: U-251
[31] = system: MCF7
[32] = system: HT-29
[33] = system: SK-MEL-2
[34] = system: SK-MEL-28
[35] = system: K562
[36] = system: NCI-H226
[37] = system: SR
[38] = system: T47D
[39] = system: M14
[40] = system: SK-OV-3
[41] = system: UACC-257
[42] = system: RPMI-8226
[43] = system: KM12
[44] = system: SNB-19
[45] = system: NCI-H460
[46] = system: OVCAR-4
[47] = system: EKVX
[48] = system: IGROV-1
[49] = system: BT-549
[50] = system: 786-0
[51] = system: RXF 393
[52] = system: NCI-H23
[53] = system: TK-10
[54] = system: LOX IMVI
[55] = system: A549
[56] = system: HOP-62
[57] = system: HL-60
[58] = system: Hs-578T
[59] = system: CCRF-CEM

Question: How did the GI50 [1] turn out when `CC1(C)CCC[C@]2(C)[C@@H]1CC[C@@]13O[C@@H]1C1=C(CO)C(=O)O[C@]14O[C@@H]4[C@@H]23` was run?
Answer: 12.4 µM (inactive)

Question: And the GI50 [2]?
Answer: 19.2 µM (inactive)

Question: And the GI50 [3]?
Answer: 14.9 µM (inactive)

Question: What about the GI50 [4] of the same compound?
Answer: 15.1 µM (inactive)

Question: What about the GI50 [5] of the same compound?
Answer: 17 µM (inactive)

Question: And the GI50 [6]?
Answer: 12.8 µM (inactive)

Question: What about the GI50 [7] of the same compound?
Answer: 12.9 µM (inactive)

Question: What about the GI50 [8] of the same compound?
Answer: 5.78 µM (inactive)

Question: What about the GI50 [9] of the same compound?
Answer: 16.1 µM (inactive)

Question: And the GI50 [10]?
Answer: 15.7 µM (inactive)

Question: And the GI50 [11]?
Answer: 17.3 µM (inactive)

Question: What about the GI50 [12] of the same compound?
Answer: 12.8 µM (inactive)

Question: What about the GI50 [13] of the same compound?
Answer: 14.5 µM

Question: And the GI50 [14]?
Answer: 15.2 µM (inactive)

Question: What about the GI50 [15] of the same compound?
Answer: 13.2 µM (inactive)

Question: And the GI50 [16]?
Answer: 17.7 µM (inactive)

Question: What about the GI50 [17] of the same compound?
Answer: 5.9 µM (inactive)

Question: What about the GI50 [18] of the same compound?
Answer: 14 µM (inactive)

Question: What about the GI50 [19] of the same compound?
Answer: 14.3 µM (inactive)

Question: What about the GI50 [20] of the same compound?
Answer: 14.3 µM (inactive)

Question: And the GI50 [21]?
Answer: 10.4 µM (inactive)

Question: And the GI50 [22]?
Answer: 6.05 µM (inactive)

Question: What about the GI50 [23] of the same compound?
Answer: 13.2 µM (inactive)

Question: What about the GI50 [24] of the same compound?
Answer: 15 µM (inactive)

Question: And the GI50 [25]?
Answer: 15.7 µM (inactive)

Question: And the GI50 [26]?
Answer: 17.3 µM (inactive)

Question: What about the GI50 [27] of the same compound?
Answer: 10.9 µM (inactive)

Question: And the GI50 [28]?
Answer: 7.55 µM (inactive)

Question: And the GI50 [29]?
Answer: 9.1 µM (inactive)

Question: What about the GI50 [30] of the same compound?
Answer: 13.8 µM (inactive)

Question: And the GI50 [31]?
Answer: 15.3 µM (inactive)

Question: What about the GI50 [32] of the same compound?
Answer: 12.4 µM (inactive)

Question: And the GI50 [33]?
Answer: 13.9 µM (inactive)

Question: What about the GI50 [34] of the same compound?
Answer: 15.6 µM (inactive)

Question: What about the GI50 [35] of the same compound?
Answer: > 41 µM (inactive)

Question: And the GI50 [36]?
Answer: 19 µM (inactive)

Question: What about the GI50 [37] of the same compound?
Answer: 4.61 µM (inactive)

Question: What about the GI50 [38] of the same compound?
Answer: 22 µM (inactive)

Question: And the GI50 [39]?
Answer: 10.8 µM (inactive)

Question: What about the GI50 [40] of the same compound?
Answer: 16.7 µM (inactive)

Question: And the GI50 [41]?
Answer: 14 µM (inactive)

Question: What about the GI50 [42] of the same compound?
Answer: > 100 µM (inactive)

Question: What about the GI50 [43] of the same compound?
Answer: 18 µM (inactive)

Question: And the GI50 [44]?
Answer: 14.8 µM (inactive)

Question: And the GI50 [45]?
Answer: 14.9 µM (inactive)

Question: What about the GI50 [46] of the same compound?
Answer: 8.24 µM (inactive)

Question: And the GI50 [47]?
Answer: 11.9 µM (inactive)

Question: And the GI50 [48]?
Answer: 13.3 µM (inactive)

Question: And the GI50 [49]?
Answer: 14.7 µM (inactive)

Question: What about the GI50 [50] of the same compound?
Answer: 15.2 µM (inactive)

Question: And the GI50 [51]?
Answer: 8.71 µM (inactive)

Question: And the GI50 [52]?
Answer: 11.7 µM (inactive)

Question: What about the GI50 [53] of the same compound?
Answer: 17.6 µM (inactive)

Question: What about the GI50 [54] of the same compound?
Answer: 10.8 µM (inactive)

Question: What about the GI50 [55] of the same compound?
Answer: 7.98 µM (inactive)

Question: What about the GI50 [56] of the same compound?
Answer: 17.8 µM (inactive)

Question: What does the source list for `CC1CC(N)=C(C#N)C1(C#N)C#N` (stereo not drawn)?
Answer: GI50 [1]: > 100 µM (inactive); GI50 [2]: > 100 µM (inactive); GI50 [3]: > 100 µM (inactive); GI50 [4]: > 100 µM (inactive); GI50 [5]: > 100 µM (inactive); GI50 [6]: > 100 µM (inactive); GI50 [7]: > 100 µM (inactive); GI50 [8]: > 100 µM (inactive); GI50 [9]: > 100 µM (inactive); GI50 [10]: > 100 µM (inactive); GI50 [11]: > 100 µM (inactive); GI50 [12]: 24.3 µM (inactive); GI50 [13]: 28.4 µM; GI50 [14]: 74.3 µM (inactive); GI50 [16]: > 100 µM (inactive); GI50 [17]: > 100 µM (inactive); GI50 [18]: > 100 µM (inactive); GI50 [19]: > 100 µM (inactive); GI50 [20]: > 100 µM (inactive); GI50 [21]: > 100 µM (inactive); GI50 [22]: > 100 µM (inactive); GI50 [24]: > 100 µM (inactive); GI50 [25]: > 100 µM (inactive); GI50 [26]: > 100 µM (inactive); GI50 [27]: > 100 µM (inactive); GI50 [28]: > 100 µM (inactive); GI50 [29]: > 100 µM (inactive); GI50 [30]: > 100 µM (inactive); GI50 [57]: > 100 µM (inactive); GI50 [31]: > 100 µM (inactive); GI50 [32]: > 100 µM (inactive); GI50 [58]: > 100 µM (inactive); GI50 [33]: > 100 µM (inactive); GI50 [35]: > 100 µM (inactive); GI50 [36]: > 100 µM (inactive); GI50 [38]: > 100 µM (inactive); GI50 [39]: > 100 µM (inactive); GI50 [40]: > 100 µM (inactive); GI50 [41]: > 100 µM (inactive); GI50 [42]: > 100 µM (inactive); GI50 [43]: > 100 µM (inactive); GI50 [44]: > 100 µM (inactive); GI50 [47]: > 100 µM (inactive); GI50 [48]: > 100 µM (inactive); GI50 [50]: > 100 µM (inactive); GI50 [51]: > 100 µM (inactive); GI50 [52]: > 100 µM (inactive); GI50 [53]: > 100 µM (inactive); GI50 [54]: > 100 µM (inactive); GI50 [55]: > 100 µM (inactive)

Question: Which results are given for `C=CCOC(=O)Cn1ccc(=O)[nH]c1=O`?
Answer: GI50 [1]: > 100 µM (inactive); GI50 [2]: > 100 µM (inactive); GI50 [3]: > 100 µM (inactive); GI50 [4]: > 100 µM (inactive); GI50 [5]: > 100 µM (inactive); GI50 [6]: > 100 µM (inactive); GI50 [59]: > 100 µM (inactive); GI50 [7]: > 100 µM (inactive); GI50 [8]: > 100 µM (inactive); GI50 [9]: > 100 µM (inactive); GI50 [10]: > 100 µM (inactive); GI50 [11]: > 100 µM (inactive); GI50 [12]: > 100 µM (inactive); GI50 [13]: > 100 µM; GI50 [14]: > 100 µM (inactive); GI50 [15]: > 100 µM (inactive); GI50 [16]: > 100 µM (inactive); GI50 [17]: > 100 µM (inactive); GI50 [19]: > 100 µM (inactive); GI50 [20]: > 100 µM (inactive); GI50 [22]: > 100 µM (inactive); GI50 [24]: > 100 µM (inactive); GI50 [25]: > 100 µM (inactive); GI50 [26]: > 100 µM (inactive); GI50 [27]: > 100 µM (inactive); GI50 [29]: > 100 µM (inactive); GI50 [30]: > 100 µM (inactive); GI50 [57]: > 100 µM (inactive); GI50 [31]: > 100 µM (inactive); GI50 [32]: > 100 µM (inactive); GI50 [58]: > 100 µM (inactive); GI50 [33]: > 100 µM (inactive); GI50 [34]: > 100 µM (inactive); GI50 [35]: > 100 µM (inactive); GI50 [36]: > 100 µM (inactive); GI50 [37]: > 100 µM (inactive); GI50 [38]: > 100 µM (inactive); GI50 [39]: > 100 µM (inactive); GI50 [40]: > 100 µM (inactive); GI50 [41]: > 100 µM (inactive); GI50 [42]: > 100 µM (inactive); GI50 [43]: > 100 µM (inactive); GI50 [44]: > 100 µM (inactive); GI50 [45]: > 100 µM (inactive); GI50 [47]: > 100 µM (inactive); GI50 [48]: > 100 µM (inactive); GI50 [50]: > 100 µM (inactive); GI50 [52]: > 100 µM (inactive); GI50 [53]: > 100 µM (inactive); GI50 [54]: > 100 µM (inactive); GI50 [55]: > 100 µM (inactive); GI50 [56]: > 100 µM (inactive)
